Assay results as given in patent US20160296591A1, “COMPOSITIONS AND METHODS FOR TREATMENT OF BDNF-RELATED CONDITIONS” (TARIX PHARMACEUTICALS LTD., priority 2013, published 2016).

Legend:
Format in all cases: cell-based, human
BDNF [1] = test: BDNF production in HUVEC, serum-free medium (BDNF Emax immunoassay); settings: for lowest dose able to stimulate significant BDNF expression: serum-free medium, 24 hours stimulation, dose response 1×10^−14M to 1×10^−6M
Procedure: (§1) Prior to stimulation, cells were washed twice with sterile PBS and then provided with the respective serum free cell medium. Cells were incubated in the serum-free medium for one hour and afterwards stimulated for 24 hours. For the dose response measurement the peptides were used in a range from 1×10^−14M to 1×10^−6M. For all other experiments, a 1×10^−7M concentration of the peptides was used, whereas isoproterenol and forskolin were used in a 10^−6M concentration. To maintain the concentration of the substances over a period of 24 hours they were added again into the medium after 12 hours. After stimulation, the concentration of BDNF was determined in the cell medium. The samples were either used directly or stored at −80° C.
(§2) For the determination of the concentration of BDNF the BDNF Emax® immunoassay system from Promega was used. At first, 96-well plates were coated with anti-BDNF overnight at 4° C. The next day, the plates were washed with TBST and incubated with blocking buffer for one hour at room temperature. Afterwards, the plate was washed again with TBST, and 100 μl of sample were applied per well. The plate was incubated on a shaker (˜400 rpm) for two hours at room temperature and later on washed five times with TBST. To each well 100 μl pAb anti-human BDNF were added, and the plate again incubated under continuous shaking for two hours at room temperature. Thereafter, the plate was washed five times with TBST, each well applied with 100 μl anti-IgY-HRP conjugate, and incubated at room temperature with shaking for one hour. Then, the plate was washed five times with TBST and incubated for 10 min at room temperature on a shaker with TMB One Solution. The reaction was stopped with 1 M hydrochloric acid and the absorbance was measured immediately at 450 nm. The BDNF concentration was determined from a standard curve.

BDNF [2] = test: BDNF production in HUVEC in complete (serum-containing) medium; settings: peptide 1×10^−7M, 24 hours
Procedure: as §1, with “[…] […]” for “Prior to stimulation, cells were washed twice with sterile PBS and then provided with the respective serum free cell medium. Cells were incubated in the serum-free medium for one hour and afterwards stimulated for 24 hours.”
as §2, with “Thereafter, the plate was washed five times with TBST, each well applied with 100 μl anti-IgY-HRP conjugate, and incubated at room temperature with shaking for one hour. Then, the plate was washed five times with TBST and incubated for 10 min at room temperature on a shaker with TMB One Solution.” left out, “curve. […]” for “curve.”

BDNF [3] = test: BDNF production in HDMEC, serum-free medium (BDNF Emax immunoassay); settings: for lowest dose able to stimulate significant BDNF expression: serum-free medium, 24 hours stimulation, dose response 1×10^−14M to 1×10^−6M
Procedure: as §1, §2

cAMP = cAMP production in HUVEC (cAMP enzyme immunoassay); settings: 15 minutes of stimulation
Procedure: Prior to stimulation with Ala^1-Arg^2-Val^3-Ser^4-Ile^5-His^6-Cys^7 (SEQ ID NO: 24), HUVEC cells were washed twice with PBS and then incubated for 1 hour in serum-free medium. In this Example, in order to generate a dose response curve, the peptide concentration ranged from 1×10^−13-1×10^−6 M. After 15 minutes of stimulation, the medium containing the peptide was removed and the cells were lysed (0.1M HCl, 0.1% Triton X-100). The clear lysate was collected, and 25 μl were used for determining the protein concentration (Pierce BCA Protein Assay Kit, Thermo Scientific, Rockford, USA) and the remaining fraction stored at −80° C. for later analysis.
cAMP concentration in cell lysates was determined using cAMP Enzyme Immunoassay Kit, Direct from Sigma-Aldrich (St. Louis, Mo., USA). Briefly, wells of 96-well plate (Goat Anti-Rabbit IgG pre-coated) were neutralized with 50 μl of Neutralizing Reagent. Next, 100 μl of acetylated cyclic AMP standard or cell lysate was added, followed by 50 μl of blue cAMP-Alkaline Phosphatase Conjugate and 50 μl of yellow EIA Rabbit Anti-cAMP antibody. The plate was then incubated on a shaker (˜500 rpm) for two hours at room temperature. […] The enzymatic reaction was stopped by adding 50 μl of Stop Solution, and the absorbance at 405 nm was measured immediately. The cAMP concentration was determined from non-linear standard curve using GraphPad Prism 5.0 software. […]

dose of the observed maximum of cAMP (cAMP) | lowest dose giving a significant increase in cAMP (cAMP; dose response 1×10^−13-1×10^−6 M) [pM] | Compound | lowest dose able to stimulate significant BDNF expression (BDNF [1]) [pM] | BDNF stimulation compared to control (BDNF [2]) | lowest dose able to stimulate significant BDNF expression (BDNF [3]) [pM] | BDNF expression at doses 100,000 times higher than 1×10^−11 compared with 1×10^−11 M (BDNF [1]) | BDNF expression at doses 100,000 times higher than 1×10^−11 compared with 1×10^−11 M (BDNF [3])
– | – | CCC(C)C1NC(=O)C(NC(=O)C(NC(=O)C(CCCNC(=N)N)NC(=O)C(N)CC(=O)O)C(C)C)CSCC(C(=O)O)NC(=O)C(Cc2c[nH]cn2)NC1=O (centres unmarked) [Pancyte] | 10 | still able to stimulate BDNF above control levels | 10 | – | –
approximately 1×10^−9 M | 10 | Ala^1-Arg^2-Val^3-Ser^4-Ile^5-His^6-Cys^7 (ARVSIHC) [SEQ ID NO:24] | – | – | – | – | –
– | – | Asp^1-Arg^2-Val^3-Tyr^4-Ile^5-His^6-Pro^7 (DRVYIHP) [Ang (1-7), naturally-occurring Angiotensin (1-7), seven amino acid peptide] | 10000 | – | 10000 | – | –
– | – | TXA301: angiotensin (1-7) peptide tested; not defined in the text, possibly linear SEQ ID NO: 6 (DRVSIHC) | 10 | – | 10 | statistically similar levels of expression | statistically similar levels of expression
